What was measured:
[1] = Influence on the gastro-intestinal tract (ulceration of the gastric epithelium, Shay et al.); type: in vivo, male rats of Sprague Dawley strain
Experimental: Influence on the gastro-intestinal tract
Ten male rats of Sprague Dawley strain, weighing 200-300 g were used for each compound tested. According to the method of Shay et al. (Shay, H., Komapov, S. A., Feb. S. S., Meranir, D., Gruenstein, M. Siplet, H. Gastroenterology 5, 43, 1945), under anesthesia, the pylorus was ligated and 4 hours later test compounds were orally administered. The animal was sacrificed 1 hour after compound administration. The stomach was removed and examined for macroscopic damage. The ulceration of the gastric epithelium was evaluated by the following evaluation: 0=no hemorrhage sites; 1=some isolated hemmorrhagic sites; 2=redness of the gastric epithelium; 3=1 to 5 small ulcers with a diameter smaller than 3 mm; 4=many small ulcers; 5=ulcers--greater than 3 mm; 6=perforated ulcer.

[2] = prior art, cited from earlier work; for anti-inflammatory effect (known): administered to mammals
[3] = Anti-inflammatory activity (carrageenin induced edema test); type: in vivo, male rats of Spargue Dawley strain; settings: for anti-inflammatory versus antinociceptive action (in words): conclusion; for % Edema Inhibition, 1 hour / % Edema Inhibition, 3 hours / % Edema Inhibition, 5 hours: oral, 30 min before carrageenin, mg/kg: ASA 100, its ester 173, XAA 120, its ester 186, TAA 60, its ester 88; for % Edema Inhibition, 1 hour: 1 hour after carrageenin; for % Edema Inhibition, 3 hours: 3 hours after carrageenin; for % Edema Inhibition, 5 hours: 5 hours after carrageenin
Experimental: Anti-inflammatory Activity (Carrageenin induced edema test)
Fifteen to twenty male rats of Spargue Dawley strain weighing 150-200 g, were employed for each compound tested. 0.1 ml of 1% carrageenin saline suspension was injected into the subplantar region of the right hind-paw. The test compounds were orally administered 30 minutes prior to the injection of carrageenin and the foot volume was determined 1,3 and 5 hours after the injection of carrageenin. The percent swelling in the foot was obtained by comparing the volume before and after the injection of carrageenin, and the rate of inhibition in the treated animals was calculated.

[4] = Analgesic activity, tail pressure test; type: in vivo, male mice of Rockland strain; settings: oral; control (water) = 0; mg/kg: ASA 100, its ester 173, XAA 50, its ester 77, TAA 50, its ester 73.5
Experimental: Tail pressure test: Ten male mice of Rockland strain weighing 20-25 g were used for each compound tested. The response threshold on applying pressure to the tail was determined with an analgesy meter at 15 and 60 minutes after oral administration of the test compound. The pressure at which a struggle was elicited was read.

[5] = Analgesic activity, Randall-Selitto's test; type: in vivo, male mice of Rockland strain; settings: oral, 30 min before carrageenin; control (water) = 0; mg/kg: ASA 100, its ester 173, XAA 50, its ester 77, TAA 50, its ester 73.5
Experimental: Randall-Selitto's method: Ten male mice of Rockland strain weighing 25 g were used for each compound tested. 0.1 ml of 1% carrageenin saline suspension was injected into the subplantar region of the right foot. The test compounds were orally administered 30 minutes before the injection. At hourly intervals for 3 hours after the carrageenin injection, the pain threshold for the inflammed feet was measured, determining the amount of pressure with an analgesy meter.

[6] = oral, pylorus ligated, 1 hour after administration, 0=no hemorrhage sites ... 6=perforated ulcer, control 3.0, mg/kg: phenylbutazone 75, ASA 100, its ester 173, XAA 120, its ester 186, TAA 60, its ester 88
[7] = oral, pylorus ligated, 1 hour after administration, versus control (distilled water) 3.0, doses as for Evaluation

| SMILES | Evaluation (ulceration of the gastric epithelium, score 0-6) [1, 6] | Increase (of ulceration evaluation) [1, 7] | anti-inflammatory effect (known) [2] | anti-inflammatory versus antinociceptive action (in words) [3] | % Edema Inhibition, 1 hour [3] | % Edema Inhibition, 3 hours [3] | % Edema Inhibition, 5 hours [3] | Relative strength, Tail pressure test [4] | Relative strength, Randall-Selitto test [5] | analgesic effect (known) [2] | Evaluation (ulceration of the gastric epithelium, score 0-6) ([1]; rat, in vivo, po) | Increase (of ulceration evaluation) ([1]; rat, in vivo, po) |
| --- | --- | --- | --- | --- | --- | --- | --- | --- | --- | --- | --- | --- |
| Cc1cccc(Nc2ccccc2C(=O)O)c1C [N-(2',3'-xylyl) anthranylic acid (XAA), N (2',3'-dimethylphenyl) anthranylic acid] | 4.2 | 1.2 | known to have an anti-inflammatory effect | – | – | – | – | – | – | – | – | – |
| O=C(OC1OC(=O)c2ccccc21)c1ccccc1Nc1cccc(C(F)(F)F)c1 (centres unmarked) [Phthalydil N(3'-trifluoromethylphenyl) anthranylate] | 3.5 | 0.5 | – | act as anti-inflammatory agents more tha as antinociceptive agents | 35.4% | 40.2% | 37.4% | – | – | – | – | – |
| CC(=O)Oc1ccccc1C(=O)O [Acetylsalicylic acid (ASA), o-Acetylsalicylic acid] | 4.1 | 1.1 | – | – | 3.8% | 24.8% | 25.3% | 1.00 | 1.05 | known to have an analgesic effect | – | – |
| O=C(O)c1ccccc1Nc1cccc(C(F)(F)F)c1 [N (3'-trifluoromethylphenyl) anthranylic acid] | – | – | known to have an anti-inflammatory effect | – | 24.3% | 29.3% | 28.3% | – | – | – | 4.9 | 1.9 |
| Cc1cccc(Nc2ccccc2C(=O)OC2OC(=O)c3ccccc32)c1C (centres unmarked) [Phthalidyl N-(2',3'-xylyl) anthranylate, Phthalydil N(2',3'-xylyl) anthranylate] | 3.3 | 0.3 | – | act as anti-inflammatory agents more tha as antinociceptive agents | 27.4% | 34.2% | 30.4% | – | – | – | – | – |
| O=C(O)c1cccnc1Nc1cccc(C(F)(F)F)c1 [2 (3'-trifluoromethyl) anilino) pyridine-3-carboxylic acids] | – | – | known to have an anti-inflammatory effect | – | – | – | – | – | – | – | – | – |
| CCCCC1C(=O)N(c2ccccc2)N(c2ccccc2)C1=O [Phenylbutazone] | 5.5 | 2.5 | – | – | – | – | – | – | – | – | – | – |
| CC(=O)Oc1ccccc1C(=O)OC1OC(=O)c2ccccc21 (centres unmarked) [Phthalidyl acetylsalicylate, Phthalydil o-acetylsalicylate] | 3.0 | – | – | – | 10.2% | 30.30% | 31.0% | 1.82 | 1.54 | – | – | – |

Reference: US4256760A, “Methods of treating mammals suffering from inflammation and pain” (Laboratorios Bago S.A., priority 1979, dated 1981)
